In PubChem BioAssay (NCI):
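Results reflect a 48-hour exposure of cells in 96-well plates to compound at five concentrations. The concentration for 50% growth inhibition is given as GI50. TGI: concentration producing complete growth inhibition.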

Key:
Test in all cases: NCI-60 cell line screen, 48 h
CAKI-1 renal = system: CAKI-1 renal
HCT-116 colon = system: HCT-116 colon
HOP-62 NSCLC = system: HOP-62 NSCLC
IGROV1 ovarian = system: IGROV1 ovarian
MALME-3M melanoma = system: MALME-3M melanoma
NCI-H460 lung = system: NCI-H460 lung
OVCAR-3 ovarian = system: OVCAR-3 ovarian
SF-268 CNS = system: SF-268 CNS
SW-620 colon = system: SW-620 colon
HL-60(TB) leukemia = system: HL-60(TB) leukemia

COc1ccn2c(C(C)=O)cc(C(=O)c3ccc4c(c3)Sc3ccccc3N4)c2c1 gave a GI50 (CAKI-1 renal) of 0.0527 µM, a TGI (CAKI-1 renal) greater than 100 µM and a GI50 (HCT-116 colon) of 0.0674 µM. The TGI (HCT-116 colon) was 4.93 µM, the GI50 (HOP-62 NSCLC) was 0.136 µM and the TGI (HOP-62 NSCLC) was greater than 100 µM. For the same molecule, the GI50 (IGROV1 ovarian) was 0.164 µM, the TGI (IGROV1 ovarian) was greater than 100 µM and the GI50 (MALME-3M melanoma) was greater than 27.8 µM. It also gave a TGI (MALME-3M melanoma) greater than 100 µM, a GI50 (NCI-H460 lung) of 0.113 µM and a TGI (NCI-H460 lung) greater than 38 µM. The GI50 (OVCAR-3 ovarian) was 0.0801 µM, the TGI (OVCAR-3 ovarian) was 0.206 µM and the GI50 (SF-268 CNS) was 0.141 µM. It also gave a TGI (SF-268 CNS) greater than 100 µM, a GI50 (SW-620 colon) of 0.148 µM and a TGI (SW-620 colon) greater than 100 µM.

Work on COc1ccc(-c2cc(-c3ccccc3)nc(N3CCN(CCNc4ccnc5cc(Cl)ccc45)CC3)n2)cc1 yielded a GI50 (CAKI-1 renal) of 2.97 µM, a TGI (CAKI-1 renal) of 12.1 µM and a GI50 (HOP-62 NSCLC) of 1.97 µM. For the same molecule, the TGI (HOP-62 NSCLC) was 4.04 µM, the GI50 (IGROV1 ovarian) was 1.48 µM and the TGI (IGROV1 ovarian) was 3.19 µM. For the same molecule, the GI50 (MALME-3M melanoma) was 1.61 µM, the TGI (MALME-3M melanoma) was 3.14 µM and the GI50 (NCI-H460 lung) was 1.92 µM. It also gave a TGI (NCI-H460 lung) of 3.78 µM, a GI50 (OVCAR-3 ovarian) of 1.89 µM and a TGI (OVCAR-3 ovarian) of 3.69 µM. It also gave a GI50 (SF-268 CNS) of 1.75 µM, a TGI (SF-268 CNS) of 3.81 µM and a GI50 (SW-620 colon) of 1.73 µM. The TGI (SW-620 colon) was 3.47 µM.

COc1ccc(-c2cnnn2-c2cc(OC)c3c(c2)OCO3)cc1 was tested, and the GI50 (CAKI-1 renal) was 0.118 µM, the TGI (CAKI-1 renal) was greater than 100 µM and the GI50 (HCT-116 colon) was 0.0596 µM. The TGI (HCT-116 colon) was greater than 42.3 µM, the GI50 (HL-60(TB) leukemia) was 0.0761 µM and the TGI (HL-60(TB) leukemia) was 2.72 µM. It also gave a GI50 (HOP-62 NSCLC) of 0.113 µM, a TGI (HOP-62 NSCLC) greater than 100 µM and a GI50 (IGROV1 ovarian) of 0.28 µM. It also gave a TGI (IGROV1 ovarian) greater than 100 µM, a GI50 (NCI-H460 lung) of 0.0728 µM and a TGI (NCI-H460 lung) greater than 29.2 µM. The GI50 (OVCAR-3 ovarian) was 0.0547 µM, the TGI (OVCAR-3 ovarian) was 0.437 µM and the GI50 (SF-268 CNS) was 0.775 µM. It also gave a TGI (SF-268 CNS) greater than 100 µM, a GI50 (SW-620 colon) of 0.0531 µM and a TGI (SW-620 colon) greater than 100 µM.
